Series [1] concerns L. infantum amastigotes (intracellular, in J774.A1 macrophages). Nature of the series: Viability assay for L. infantum amastigotes. The class given is cell-based. As to conditions: Leishmania infantum, J774.A1, 24 h, read-out: L. infantum amastigote viability [% at 20 μM]. In outline: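 Luciferase-expressing L. infantum metacyclic promastigotes (MHOM/MA/67/ITMAP263) infected J774.A1 murine macrophages at 1:10 for 24 h at 37 °C, 5% CO2. After compound treatment, a further 24 h incubation followed. Percent amastigote viability, in triplicate, was normalised to host-cell density by a propidium iodide correction factor.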

The nature of series [2]: Kinetic aqueous solubility by nephelometry. The class given is physicochemical. As to conditions: phosphate-buffered saline, aqueous buffer, kinetic from dmso stock, PBS pH 7.4, 1% DMSO, 25°C, logS = decadic logarithm of molar solubility [M]. How it is done: Phosphate-buffered saline pH 7.4 was prepared according to the European Pharmacopeia 10.4 by dissolving 2.38 g sodium monohydrogen phosphate dodecahydrate, 0.19 g potassium dihydrogen phosphate and 8.0 g sodium chloride in demineralised water (to a total volume of 1000 mL). The pH was adjusted to a value of 7.4 with hydrochloric acid. The buffer was filtered through a 0.45 μm membrane filter (Chromafil® Xtra PES-45/25) before use.
The kinetic aqueous solubility was determined by nephelometry. The measurements were performed on the NEPHELOstar Plus, with accompanying software Omega 5.11 and MARS 3.20 (BMG LABTECH, Ortenberg, Germany). Generally, 2 dilution series of 1–2 weighed portions of each substance were measured. First, stock solutions of the compounds were prepared in DMSO. A series of dilutions in DMSO were prepared from one stock solution to obtain at least 3 concentrations below and 3 concentrations above the precipitation point in the measured series. The specific concentrations were usually measured as duplicates.
The 96-well plate (Corning UV transparent flat-bottom 96-well plate, Corning Incorporated, Kennenbunk, ME, USA) was inspected for contamination and scratches and measured without samples prior to the solubility measurement of the compounds. 198 μL of phosphate-buffered saline pH 7.4 was placed in a 96 well plate for each well to be measured. 2 μL of a DMSO solution was added and immediately mixed by moving the pipette plunger. This solution either contained no substance—and served as a blank for the measurement (3 wells)—or the respective DMSO dilution of the substance (2–4 wells). The concentration of the solvent DMSO in each measured solution was 1%. The concentration of the compound corresponds to a 1:100 dilution compared to the respective DMSO dilution. The well plate bottom was cleaned with a lint-free cloth and compressed air and inspected for impurities before measurement. After shaking at 500 rpm for 10 s (double orbital), the measurement was carried out in the nephelometer with the laser intensity set to 80% and beam focus of 2.5 mm at a temperature of 25°C.
The obtained measuring points, relative nephelometric units (RNU) per compound concentration, were used to model two straight lines: one straight line with constant low readings and slope → 0 characterises the concentration range where no precipitation has taken place yet; The other straight line has a steep slope and increase of the RNU per concentration and characterises the concentrations at which precipitation takes place in the respective sample vessels.
The evaluation was carried out by calculating the two straight lines and their point of intersection. Outliers and values in a saturation range for the kick-off curve (usually >800 kRNU) were not used to create the straight lines and are listed separately in the evaluation file. […] The x-value of the intersection of the two straight lines represents the kinetic solubility. The results of two dilution series are additionally indicated as range (in brackets). For measurements of 3 or more series, a mean value with standard deviation is provided. The logS value describes the decadic logarithm of the molar solubility: logS (molar solubility [M]).

For series [3], the system named is murine macrophages J774.A1. Nature of the series: Cytotoxicity assays on murine macrophages (WST-1). The class given is cell-based. As to conditions: error 1 SD. How it is done: Cytotoxicity assays on murine macrophages. Murine macrophages from the cell line J774.A1 (ATCC® TIB-67TM) were cultivated under a humidified 5% CO2/95% air atmosphere at 37°C in Dulbecco’s modified Eagle’s medium (DMEM) supplemented with 10% (v/v) FBS, 10 U/mL penicillin and 10 μg/mL streptomycin. The experimental protocol for the determination of EC50 values was identical as described by Demoro et al. 2012 [71], with the following change: 200 μL/well of a cell suspension at 6 × 10^4 cells per mL was added in a 96-well culture plate and washed with 150 μL of DMEM. The cytotoxicity of the compounds was evaluated in triplicate using the WST-1 reagent (Roche). The control treatment included cells cultured in the presence of DMSO 1% (v/v). Absorbance at 450 nm (Ai 450 nm), corresponding to the formazan dye produced by metabolically active cells, was measured with an EL 800-microplate reader. The corrected absorbance values at 450 nm (Ai c 450 nm) were obtained by subtracting the corresponding absorbance value at 630 nm (Ai 630 nm) and the blank average (Ablank 450 nm): Aic450nm=Ai450nm-Ai630nm-Ablank450nm
Cell viability (%), with the number of viable cells proportional to the absorbance, was calculated as follows: cellviability%=Aic450nm/Anegativecontrolc450nm*100%
Ai c 450 nm refers to an absorbance obtained from cells treated with compound I at a specific concentration (i) and Anegative control c 450 nm refers to an absorbance obtained from cells in the DMSO-treated control (negative control). The errors were calculated using error propagations and are expressed as one SD, estimated as σ^n−1.
On the technique in general: Tetrazolium dyes change colour on reduction, which living cells bring about.

Converted amounts (≈) assume the structure as drawn.

Usually viability stands for a read-out of living cells in per cent, often relative to untreated cells. By solubility (kinetic) is commonly meant solubility judged after dilution from a stock solution rather than from solid.

As to `CNCCNC(=O)CN1C(=O)Cc2c([nH]c3ccc(I)cc23)-c2ccc(Cl)cc21` [1f, 2-(3-Chloro-9-iodo-6-oxo-7,12-dihydrobenzo[2,3]azepino[4,5-b]indol-5(6H)-yl)-N-[2-(methylamino)ethyl]acetamide], the viability at 20 µM in series [1] is 72 ± 5%. The same compound showed a solubility (kinetic) at 10 s in series [2] of 2.95e-05 M (≈ 15.4 µg/mL). The “Macrophage toxicity [% at stated conc.]” value in series [3] (% cell death at 60 μM) is reported as 105.8 ± 0.2%.

For `CNCCNC(=O)CN1C(=O)Cc2c([nH]c3ccc(Cl)cc23)-c2ccc(Cl)cc21` [1g, 2-(3,9-Dichloro-6-oxo-7,12-dihydrobenzo[2,3]azepino[4,5-b]indol-5(6H)-yl)-N-[2-(methylamino)ethyl]acetamide], in series [1], the viability at 20 µM worked out at 70 ± 2%. The compound also had a solubility (kinetic) at 10 s in series [2] of 4.79e-05 M (≈ 20.6 µg/mL). In series [3] (% cell death at 50 μM), the “Macrophage toxicity [% at stated conc.]” value amounted to 101.9 ± 3.6%.

As to `CNCCNC(=O)CN1C(=O)Cc2c([nH]c3ccc(C(F)(F)F)cc23)-c2ccc(Cl)cc21` [1h, 2-(3-Chloro-6-oxo-9-trifluoromethyl-7,12-dihydrobenzo[2,3]azepino[4,5-b]indol-5(6H)-yl)-N-[2-(methylamino)ethyl]acetamide], the viability at 20 µM in series [1] was found to be 93 ± 10%. Moreover, the solubility (kinetic) at 10 s in series [2] is 4.27e-05 M (≈ 19.8 µg/mL). In addition, the “Macrophage toxicity [% at stated conc.]” value in series [3] (% cell death at 60 μM) was 102.8 ± 0.4%.

For the origin of these results see article PMC10688702, “The indole motif is essential for the antitrypanosomal activity of N^5-substituted paullones” (PLOS ONE, 2023).
